Values after ≈ are worked out from the molar mass of the structure shown.
Legend:
[1] = test system: R. anatipestifer (ATCC 11845); assay: Minimum inhibitory concentration (MIC); format: cell-based, Riemerella anatipestifer
MRSA (ATCC 43300) = assay: Minimum inhibitory concentration (MIC); format: cell-based, Staphylococcus aureus
[2] = test system: Escherichia coli (ATCC 25922); assay: Growth kinetics curve; format: cell-based

## Nc1nnc(Sc2ncc([N+](=O)[O-])s2)s1 [halicin]
[1]; R. anatipestife (ATCC 11845), second listing
  MIC: 8 µg/mL (≈ 30.6 µM)
[1]; R. anatipestifer (ATCC 11845), first listing
  MIC: 4 µg/mL (≈ 15.3 µM)
MRSA (ATCC 43300)
  MIC: 8 µg/mL (≈ 30.6 µM)
[2]; 1/2 × MIC, E. coli (ATCC 25922)
  growth in growth kinetics curve assay: significantly inhibited during the initial 16 h
[2]; 4 × MIC, after 20 h
  growth in growth kinetics curve assay: still proliferated significantly

Reference: publication PMC11111955, “Safety and efficacy evaluation of halicin as an effective drug for inhibiting intestinal infections” (Frontiers in Pharmacology, 2024)
